From US20090069441A1, “Motuporamine Mimic Agents” (priority 2006, published 2009)
Read-outs that look alike come from different tables or passages of the source.

Experiments:
[1] = biological target: polyamine transporter (PAT); settings: data originally reported in Ref; read-out: L1210 Ki value; cited from earlier work
L1210 cells [2] = settings: 48 h incubation; data originally reported in Ref; cited from earlier work
CHO-MG cells = settings: 48 h incubation; data originally reported in Ref; cited from earlier work
CHO cells = settings: data originally reported in Ref, cited from earlier work; for IC50: 48 h incubation
[3] = system: Drosophila imaginal leg discs; assay: Imaginal disc eversion assay; type: cell-based, Drosophila melanogaster; settings: Drosophila melanogaster, 15 hr incubation in Robb's medium
Procedure: DihydroMotuporamine C, 4a, was used to develop an imaginal disc assay in Drosophila flies. The imaginal leg discs were collected by microscopic dissection from maggots. […] Inhibition was measured as failure of the disc to fully develop into a fly leg after 15 hr of incubation in Robb's growth medium. This presumably occurs by overactivation of Rho, an important signaling pathway in development. Hyper-stimulation of this pathway is sufficient to block development of the fly leg.
Fly Stocks: 20 female and 5 male wild type Oregon variant of Drosophila melanogaster interbred in blue food medium for 24 hours then flies are removed. Third instar wall-crawling larvae collected then dissected on the sixth day. Flies kept in 25° C. incubation chamber.
Blue Food Preparation: Standard corn meal medium heated then mixed completely with aqueous 1% Bromophenol Blue. The food medium is cooled for one day or more before use.
Dissection Medium: Ringer's Buffer with 10 uL 0.1% BSA. Ringer's Medium consists of 130 mM NaCl, 5 mM KCl, 1.5 mM CaCl2-2H2O, Stored at room temperature (23° C.), BSA added before dissection.
Cultivation Medium: Minimal Robb's Medium with 10 uL 0.1% BSA. Minimal Robb's Medium consists of 40 mM KCl, 0.4 mM KH2PO4, 40 mM NaCl, 0.4 mM NaH2PO4.7H2O, 1.2 mM MgSO4.7H2O, 1.2 mM MgCl2-6H2O, 1 mM CaCl2-2H2O, 10 mM Glucose, 0.2 mM L-asparagine, 4.0 mM L-glutamine, 0.16 mM Glycine, 0.64 mM L-leucine, 0.32 mM L-proline, 0.16 mM R-Serine, 0.64 mM L-valine. Stored at −25° C. One day before dissection, aliquot defrosted in 4° C. Add BSA then warmed to room temperature (23° C.) before dissection.
0.1% BSA: 0.1 g BSA fraction V (Sigma#A-9647) in 10 mL distilled H2O, Stored at 4° C.
Developmental Hormone: 1 mg 20-hydroxyecdysone (Sigma #H-5142) in 1 mL 100% Ethanol. Stored at −25° C. Before use, stock is diluted 10× (1 mL added to 9 mL of 100% Ethanol). 10 μL of diluted 20-hydroxyecdysone is added to culture.
Dissection Procedures: Third instar larvae are removed from cultivation bottle with a wetted brush and washed in dH2O to remove food medium clinging to larvae. The cleaned larvae are dissected in Ringer's Medium using forceps. The imaginal discs are washed in fresh Ringer's Medium, and then cultivated with 1 mL of Robb's Medium in 12-well culture plate. Each culture well should have 30˜40 imaginal discs.
Culturing Procedures: In a larger container, place the 12-well culture plate on a moist towel, then seal the large container. Cultivate at 25° C. for 15 hours. Evaluation: Three categories will be used to grade the eversion of each imaginal disc. Full Eversion—the leg is fully extended from the disc. Partial Eversion—the leg is protruding from the epithelial. No Eversion—no sign of any protrusion.

L1210 cells [4] = assay: Cytotoxicity (cell growth, MTT) in L1210 cells; type: cell-based, mouse; settings: Mus musculus; L1210 experiments, no added SPD; read-out: L1210 IC50
Source text: In terms of Table 1, L1210 cells are mouse leukemia cells and are the gold standard in terms of evaluating polyamine cytotoxicity data due to a plethora of prior data in this cell line for other polyamine structures. Clearly 7a was similar in all respects to 4a (Table 1). […] The lower the Ki value, the higher the affinity of the drug for the polyamine transporter (PAT) on the cell surface. Chinese hamster ovary (CHO) cells and a mutant line without an active PAT (CHO-MG) also evaluated the PAT selectivity of these drugs.
Biological Evaluation. Once synthesized, the conjugates were screened for cytotoxicity in L1210, CHO and CHO-MG cells. L1210 (mouse leukemia) cells were selected to enable comparisons with the published IC50 and Ki values for a variety of polyamine substrates. Chinese Hamster Ovary (CHO) cells were chosen along with a mutant PAT deficient cell line (CHO-MG) in order to comment on selective transport via the PAT (Wang et al, J. Med. Chem. 2003, 46, 2663-2671; Wang et al, J. Med. Chem. 2003, 46, 2672-2682; Wang et al., J. Med. Chem. 2003, 46, 5129-5138; Delcros et al., J. Med. Chem., 2002, 45, 5098-5111).
L1210 IC50 and Ki studies. […] The Ki values in Table 3 were determined for [^14C]spermidine uptake and reflect the affinity of the polyamine derivative for the polyamine transporter on the cell surface. With both parameters, one can determine whether high affinity for the transporter (e.g., low Ki value) translated into high cytotoxicity (e.g., low IC50 value), etc.
Biological studies. Murine leukemia cells (L1210), CHO and CHO-MG cells were grown in RPMI medium supplemented with 10% fetal calf serum, glutamine (2 mM), penicillin (100 U/mL), streptomycin (50 μg/mL). L-Proline (2 μg/mL) was added to the culture medium for CHO-MG cells. Cells were grown at 37° C. under a humidified 5% CO2 atmosphere. Aminoguanidine (AG, 2 mM) was added to the culture medium to prevent oxidation of the drugs by the enzyme (bovine serum amine oxidase) present in calf serum. Trypan blue staining was used to determine cell viability before the initiation of a cytotoxicity experiment. Cells in early to mid log-phase were used. IC50 determinations. Cell growth was assayed in sterile 96-well microtiter plates (Becton-Dickinson, Oxnard, Calif., USA). L1210 cells were seeded at 5e^4 cells/mL of medium (100 μL/well). CHO and CHO-MG cells were plated at 2e^3 cells/mL. Drug solutions (10 μL per well) of appropriate concentration were added at the time of seeding for L1210 cells and after an overnight incubation for the CHO cell lines. After exposure to the drug for 48 hr, cell growth was determined by measuring formazan formation from 3-(4,5-dimethylthiazol-2-yl)2,5-diphenyltetrazolium using a Titertek Multiskan MCC/340 microplate reader for absorbance (540 nm) measurements (Mosmann, T., J. Immunol. Methods 1983, 65, 55-63).

## NCCCNCCCN1CCCCCCCCCCCCCC1 [Compound 4a, Dihydromotuporamine C, reference compound]
[1]
  Ki: 9.9 µM
L1210 cells [2]
  IC50: 3 µM
CHO-MG cells
  IC50: 10 µM
CHO cells
  IC50: 10.5 µM
  IC50 Ratio (CHO-MG/CHO), a measure of PAT selectivity: 1

## NCCCNCCCNCc1c2ccccc2cc2ccccc12 [Compound 6a]
[1]
  Ki: 33.4 µM
L1210 cells [2]
  IC50: 1.8 µM
[3]
  inhibition at 18 µM: 60%
CHO-MG cells
  IC50: 3.4 µM
CHO cells
  IC50: 1.9 µM
  IC50 Ratio (CHO-MG/CHO), a measure of PAT selectivity: 1.8

## CCN(CCCCNCCCCN)Cc1c2ccccc2cc2ccccc12 [Compound 7b, N-(4-Amino-butyl)-N′-anthracen-9-ylmethyl-N′-ethyl-butane-1,4-diamine]
[1]
  Ki: 24.4 µM
[3]
  inhibition at 18 µM: 8%
L1210 cells [4]
  IC50: 22.2 µM
CHO-MG cells
  IC50: 21.9 µM
CHO cells
  IC50: 22.2 µM
  IC50 Ratio (CHO-MG/CHO), a measure of PAT selectivity: 1
